Test results as given in US20050033021A1, “Chimeric Gatiphal 15 variants and their use in the analysis and discovery of modulators of G-protein coupled receptors” (priority 2003, published 2005).

Target: T1, rat T1 R1/T1 R3 umami taste receptor (Rattus norvegicus, UniProt Q923K1+Q9Z0R8)
T1 construct: expressed in transfected cells; host or cells: HEK-293, transient transfection, pEAK10 expression vector
T1 sequence (Q9Z0R8 20-840): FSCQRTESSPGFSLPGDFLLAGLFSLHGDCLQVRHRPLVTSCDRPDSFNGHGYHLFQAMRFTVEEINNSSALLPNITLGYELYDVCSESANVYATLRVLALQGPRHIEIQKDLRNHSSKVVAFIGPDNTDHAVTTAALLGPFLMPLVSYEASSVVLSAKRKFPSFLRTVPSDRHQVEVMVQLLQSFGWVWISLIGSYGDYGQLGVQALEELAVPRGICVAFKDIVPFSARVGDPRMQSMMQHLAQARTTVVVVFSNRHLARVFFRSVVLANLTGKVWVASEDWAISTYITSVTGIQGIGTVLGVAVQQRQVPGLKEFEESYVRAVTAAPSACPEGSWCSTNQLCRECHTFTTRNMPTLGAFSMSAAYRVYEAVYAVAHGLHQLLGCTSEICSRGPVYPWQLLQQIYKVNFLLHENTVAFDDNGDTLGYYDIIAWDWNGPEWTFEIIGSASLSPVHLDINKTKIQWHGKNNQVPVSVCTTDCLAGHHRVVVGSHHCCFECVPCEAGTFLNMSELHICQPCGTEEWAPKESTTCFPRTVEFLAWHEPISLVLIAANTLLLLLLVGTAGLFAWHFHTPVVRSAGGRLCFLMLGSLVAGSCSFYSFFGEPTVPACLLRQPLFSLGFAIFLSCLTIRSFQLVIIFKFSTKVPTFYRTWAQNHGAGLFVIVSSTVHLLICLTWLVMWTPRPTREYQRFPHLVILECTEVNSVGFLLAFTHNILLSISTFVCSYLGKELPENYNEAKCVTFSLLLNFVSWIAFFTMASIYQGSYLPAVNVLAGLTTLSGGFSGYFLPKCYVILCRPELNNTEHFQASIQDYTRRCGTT
T1 sequence (Q923K1 21-858): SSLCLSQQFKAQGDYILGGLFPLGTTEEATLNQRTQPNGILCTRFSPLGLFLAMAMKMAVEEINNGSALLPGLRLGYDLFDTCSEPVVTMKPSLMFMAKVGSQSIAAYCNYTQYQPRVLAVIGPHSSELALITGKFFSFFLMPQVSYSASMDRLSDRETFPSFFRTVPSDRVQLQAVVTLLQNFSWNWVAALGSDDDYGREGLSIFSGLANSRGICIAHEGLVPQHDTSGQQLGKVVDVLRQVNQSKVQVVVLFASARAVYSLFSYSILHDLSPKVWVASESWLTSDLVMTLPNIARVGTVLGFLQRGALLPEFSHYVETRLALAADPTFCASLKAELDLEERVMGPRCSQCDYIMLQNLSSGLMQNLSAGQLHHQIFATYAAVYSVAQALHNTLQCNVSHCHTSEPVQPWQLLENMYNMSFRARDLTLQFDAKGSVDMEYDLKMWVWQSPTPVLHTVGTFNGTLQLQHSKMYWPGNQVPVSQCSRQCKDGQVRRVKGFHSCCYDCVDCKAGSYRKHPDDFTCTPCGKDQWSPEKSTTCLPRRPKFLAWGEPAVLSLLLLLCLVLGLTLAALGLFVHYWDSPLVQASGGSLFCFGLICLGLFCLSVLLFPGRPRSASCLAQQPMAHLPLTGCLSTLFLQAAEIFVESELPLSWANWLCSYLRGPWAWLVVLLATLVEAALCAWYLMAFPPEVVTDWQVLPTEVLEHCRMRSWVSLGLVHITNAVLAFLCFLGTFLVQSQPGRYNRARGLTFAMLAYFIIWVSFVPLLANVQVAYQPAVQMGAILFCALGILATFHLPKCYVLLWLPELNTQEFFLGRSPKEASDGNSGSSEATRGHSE
Experiment: Calcium imaging of HEK-293 cells transiently transfected with rat T1R1, T1R3 and Ga15 or Ga15/i1
Assay type: cell-based
Conditions: HEK-293 with rat T1R1, T1R3 and Ga15/i1; in the presence of 2.5 mM IMP
Source text: Rat T1 R2 and T1 R3 expression constructs were generated using the pEAK10 expression vector (Edge Biosystems). (Rat T1 R1, T1 R2, and T1 R3 nucleic acid sequences are described in U.S. Provisional Application No. 60/339,472, incorporated by reference in its entirety herein). […] Calcium mobilization was monitored on an Axiovert S100 microscope equipped with an inverted 10X/0.5 LWID piano fluor objective (Zeiss) and a cooled CCID camera (Princeton Instruments). Fluorescence images were acquired at 480 nrn excitation and 535 nm emission, and analyzed with Imaging Workbench 4.0 software (Axon Instruments). T1 R receptor activity was quantitated by counting the number of responding cells 30 seconds after stimulus addition. […]

SMILES	cell response (intracellular calcium) to umami taste stimuli
N[C@@H](CC(=O)O)C(=O)O [L-aspartate]	responded
N[C@@H](CCC(=O)O)C(=O)O [L-glutamate]	responded
